Results on one substance are retold here after patent US12729381B2, “Methods and compositions for inactivating interleukin-2-inducible t-cell kinase (ITK)” (priority 2020, dated 2026).

Non-standard residues stand in square brackets, D forms with d. No end group written: not given here. *: point of attachment. FITC = O=C1OC2(c3ccc(O)cc3Oc3cc(O)ccc32)c2ccc(NC(=S)*)cc21; pY = N[C@@H](Cc1ccc(OP(=O)(O)O)cc1)C(=O)O

The test system of the experiment is SLP76: ITK signaling. Kind of experiment: Western blot of signaling proteins in mouse T cells stimulated with anti-CD3 and anti-CD28. The class given is cell-based. The procedure:
Western blotting: For protein analysis, T cells were either nonstimulated, or stimulated with anti-CD3 and anti-CD28 for 24 hours overnight, and were lysed with freshly prepared lysis buffer (RIPA Buffer (Fisher Scientific cat #PI89900)+cOmplete Protease Inhibitor Cocktail (Sigma-Aldrich; cat #11697498001)) and centrifuged for 10 minutes at 14000 rpm at 4° C. Protein aliquots of 70 μg of protein were loaded on a 12-18% denaturing polyacrylamide gel and transferred to nitrocellulose membranes for immunoblot analysis using antibodies specific to proteins of interest.
To ensure that the peptide easily enters cells and that its cellular localization can be monitored, a C-terminal TAT peptide (GRKKRRQRRRPQ) (SEQ ID NO:3) and an N-terminal fluorescent FITC dye were incorporated, respectively, and named it SLP76pTYR peptide ([…]). SLP76pTYR peptide (FITC Dye ^132NEEEEAPVEDDADpYEPPPSNDEEA^155-TAT) (SEQ ID NO:5) and non-specific control peptide (FITC Dye-[…]-TAT) (SEQ ID NO:6) were synthesized by Genscript Inc (Piscataway, NJ). These peptides were initially dissolved in 3% ammonia water to a final concentration of 10 mg/mL and then further diluted into PBS to a final concentration of 0.1 mg/mL. Fresh splenocytes were isolated from WT mice, and T cells were generated from splenocytes as previously described (Baker et al., 2001). Briefly, T cells were isolated from splenocytes using MACS beads (Miltenyi Biotec), then cultured in complete RPMI media (3×10^6 cells/mL) and plated on anti-CD3 ([…]; Biolegend; cat #100202) and anti-CD28 ([…]; Biolegend; cat #102116) antibody-coated tissue culture plates until otherwise specified. T cells were incubated with SLP76pTYR, control peptide or vehicle alone at different concentrations ranging from 100 ng/ml to 1 mg/ml in the presence of 4 mg/ml of protamine sulfate. […] Within 60 minutes, it was observed that peptides were inside the cells. Cells were cultured for 5 minutes prior to investigating signaling changes. Cells were examined for the presence of FITC by microscopy using a Leica DMi8 microscope equipped with an infinity total internal reflection fluorescence (TIRF) and DIC modules, a Lumencor SOLA SE II light box, a 150 mW 488 (GFP) laser and filter cube, a 100x/1.47 NA objective, and an Andor iXon Life 897 EMCCD camera. FITC expression was confirmed by flow cytometry as well. Cells were lysed and used in Western blots.
ITK deficiency is known to enhance the development of regulatory T cells (Tregs) (Elmore et al., 2020, Owen et al., 2019) so the peptide inhibitor was tested to determine whether inhibition of the ITK: SLP76Y145 interactions using SLP76pTYR would induce Tregs. First, the frequency of Tregs was examined by expression of CD4^+ and FoxP3^+ (FIG. 18A). Next, total mouse T cells were stimulated with anti-CD3 (Sugie et al., 2004) in the presence of either SLP76pTYR, nonspecific peptide, or vehicle alone for 5 to 24 hours, and cells were harvested and examined for the presence of Tregs (CD4^+CD25^+FoxP3^+). […] Next, the effects of SLP76pTYR peptide on human PBMC samples from healthy human patients was investigated. T cells from these patients were stimulated with anti-CD3 (OKT3) (Karimi et al., 2005) for 5 minutes in the presence of SLP76pTYR or vehicle alone. […] No differences in stimulated or unstimulated total human AKT (FIG. 18E and FIG. 28H) was observed, providing a showing that the SLP76pTYR peptide has an impact on signaling pathways downstream of SLP76 in both mouse and human T cells. […] Next, the ability of SLP76pTYR peptide to affect the production of proinflammatory cytokines in human PBMCs was investigated. T cells from healthy human were stimulated with anti-CD3 (OKT3) and anti-CD28 in the presence of SLP76pTYR or vehicle alone, along with Brefeldin A. T cells incubated with SLP76pTYR or vehicle alone were also examined in the presence of PMA+lonomycin and Brefeldin A for 6 hours. […]

Where [1] appears, read: anti-CD3 and anti-CD28 for 5 minutes, vs vehicle alone.

With “FITC Dye ^132NEEEEAPVEDDADpYEPPPSNDEEA^155-TAT ({FITC}-NEEEEAPVEDDAD[pY]EPPPSNDEEAGRKKRRQRRRPQ) [SLP76pTYR]”, the “off-target effects against other kinases” value (PI3K and AKT, mouse and human T cells (FIG. 28A-H)) was “minimal off-target effects against other kinases, including PI3K and AKT”. Moreover, under setting [1], the “ITK phosphorylation, stimulated” value is listed as “reduction in ITK phosphorylation” and the “PLCγ-1 phosphorylation, stimulated” value is “a reduction in stimulated phosphorylation PLCγ-1 was observed”. Also, the “ITK phosphorylation, non-stimulated” value (non-stimulated cells, vs vehicle alone) was “A reduction in non-stimulated phosphorylation ITK was not observed”. Also, the “phosphorylation of AKT” value (stimulated and non-stimulated, also total AKT) was “No differences in the phosphorylation of PI3K or AKT was observed”. In addition, under “stimulated and non-stimulated, also total PI3K”, the “phosphorylation of PI3K” value is given as “No differences in the phosphorylation of PI3K or AKT was observed”. Moreover, under “vs vehicle alone”, the “non-stimulated phospho-PLCγ-1 and stimulated or non-stimulated PLCγ-1” value is “no reduction with non-stimulated phospho-PLCγ-1or either stimulated or non-stimulated PLCγ-1 was observed”; the “total ITK, stimulated or non-stimulated” value is “nor was any reduction for non-stimulated total ITK or stimulated total ITK observed”.
